According to patent US20020111274A1, “1-alkyl-3-[1-(substituted phenyl) benzotriazol-6-yl] uracils” (BASF Aktiengesellschaft, priority 2000, published 2002):

Key:
Design in all cases: scale not given here
[1] = test system: CHEAL Lambsquarters, Common; test: Preemergence herbicidal evaluation, CHEAL; format: in vivo, Chenopodium album, L.; conditions: preemergence
Summary of the method: (§1)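 First, seed is blended with potting soil and sown over roughly an inch of soil per cup. Next, the surface is sprayed with an aqueous acetone solution delivering about 0.013–0.800 kg/ha. Finally, cups are grown in the greenhouse and rated after 4–5 weeks.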

ZEAMX Corn, Field [2] = test: Postemergence herbicidal evaluation, ZEAMX; format: in vivo, Zea mays, L. (Sammel-Bezeichnung); conditions: postemergence spray, rated about two-three weeks after treatment
Summary of the method: (§2)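 Ratings from greenhouse plants scored about two to three weeks after a foliar spray; data from multiple tests averaged. Seedlings about two weeks old received roughly 0.006–0.400 kg/ha active compound in 80/20 acetone/water with 1.0% methylated seed oil.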

CASOB Sicklepod [3] = test: Preemergence herbicidal evaluation, CASOB; format: in vivo, Cassia obtusifolia, L.; conditions: preemergence
Summary of the method: as §1

[4] = test system: CHEAL Lambsquarters, Common; test: Postemergence herbicidal evaluation, CHEAL; format: in vivo, Chenopodium album, L.; conditions: postemergence spray, rated about two-three weeks after treatment
Summary of the method: as §2

ECHOG Barnyardgrass [5] = test: Preemergence herbicidal evaluation, ECHOG; format: in vivo, Echinochloa crus-galli, (L.) Beau; conditions: preemergence
Summary of the method: as §1

AMBEL Ragweed, Common [6] = test: Postemergence herbicidal evaluation, AMBEL; format: in vivo, Ambrosia artemisifolia, L.; conditions: postemergence spray, rated about two-three weeks after treatment
Summary of the method: as §2

SETVI Foxtail, Green [7] = test: Preemergence herbicidal evaluation, SETVI; format: in vivo, Setaria viridis, (L.) Beau; conditions: preemergence
Summary of the method: as §1

GALAP Galium [8] = test: Preemergence herbicidal evaluation, GALAP; format: in vivo, Galium aparine; conditions: preemergence
Summary of the method: as §1

GALAP Galium [9] = test: Postemergence herbicidal evaluation, GALAP; format: in vivo, Galium aparine; conditions: postemergence spray, rated about two-three weeks after treatment
Summary of the method: as §2

ABUTH Velvetleaf [10] = test: Preemergence herbicidal evaluation, ABUTH; format: in vivo, Abutilon theophrasti, Medic.; conditions: preemergence
Summary of the method: as §1

ORYSAT Rice, Tebonnet [11] = test: Preemergence herbicidal evaluation, ORYSAT; format: in vivo, Oryza sativa, (L.); conditions: preemergence
Summary of the method: as §1

ORYSAT Rice, Tebonnet [12] = test: Postemergence herbicidal evaluation, ORYSAT; format: in vivo, Oryza sativa, (L.); conditions: postemergence spray, rated about two-three weeks after treatment
Summary of the method: as §2

ZEAMX Corn, Field [13] = test: Preemergence herbicidal evaluation, ZEAMX; format: in vivo, Zea mays, L. (Sammel-Bezeichnung); conditions: preemergence
Summary of the method: as §1

GLXMAW Soybean, Williams [14] = test: Preemergence herbicidal evaluation, GLXMAW; format: in vivo, Glycine max, (L.) Merr. cv Williams; conditions: preemergence
Summary of the method: as §1

ECHOG Barnyardgrass [15] = test: Postemergence herbicidal evaluation, ECHOG; format: in vivo, Echinochloa crus-galli, (L.) Beau; conditions: postemergence spray, rated about two-three weeks after treatment
Summary of the method: as §2

CASOB Sicklepod [16] = test: Postemergence herbicidal evaluation, CASOB; format: in vivo, Cassia obtusifolia, L.; conditions: postemergence spray, rated about two-three weeks after treatment
Summary of the method: as §2

AMBEL Ragweed, Common [17] = test: Preemergence herbicidal evaluation, AMBEL; format: in vivo, Ambrosia artemisifolia, L.; conditions: preemergence
Summary of the method: as §1

ABUTH Velvetleaf [18] = test: Postemergence herbicidal evaluation, ABUTH; format: in vivo, Abutilon theophrasti, Medic.; conditions: postemergence spray, rated about two-three weeks after treatment
Summary of the method: as §2

SETVI Foxtail, Green [19] = test: Postemergence herbicidal evaluation, SETVI; format: in vivo, Setaria viridis, (L.) Beau; conditions: postemergence spray, rated about two-three weeks after treatment
Summary of the method: as §2

[20] = test system: TRZAWR Wheat, Winter, cv Riband; test: Postemergence herbicidal evaluation, TRZAWR; format: in vivo, Triticum aestivum; conditions: postemergence spray, rated about two-three weeks after treatment
Summary of the method: as §2

[21] = test system: TRZAWR Wheat, Winter, cv Riband; test: Preemergence herbicidal evaluation, TRZAWR; format: in vivo, Triticum aestivum; conditions: preemergence
Summary of the method: as §1

GLXMAW Soybean, Williams [22] = test: Postemergence herbicidal evaluation, GLXMAW; format: in vivo, Glycine max, (L.) Merr. cv Williams; conditions: postemergence spray, rated about two-three weeks after treatment
Summary of the method: as §2

[23] = test system: IPOHE Morningglory, Ivyleaf; test: Postemergence herbicidal evaluation, IPOHE; format: in vivo, Ipomoea hederacea, (L.) Jacq.; conditions: postemergence spray, rated about two-three weeks after treatment
Summary of the method: as §2

[24] = test system: IPOHE Morningglory, Ivyleaf; test: Preemergence herbicidal evaluation, IPOHE; format: in vivo, Ipomoea hederacea, (L.) Jacq.; conditions: preemergence
Summary of the method: as §1

Compound: COC(=O)COc1ccc(C)c(-n2nnc3cc(F)c(-n4c(=O)cc(C(F)(F)F)n(C)c4=O)cc32)c1 [Example 38]
- CHEAL herbicidal rating ([1]; rate 0.016 kg/ha): 9.0
- CHEAL herbicidal rating ([1]; rate 0.032 kg/ha): 9.0
- CHEAL herbicidal rating ([1]; rate 0.062 kg/ha): 9.0
- CHEAL herbicidal rating ([1]; rate 0.125 kg/ha): 9.0
- Postemergence herbicidal rating ZEAMX (ZEAMX Corn, Field [2]; 0.008 kg/ha): 7.5
- Postemergence herbicidal rating ZEAMX (ZEAMX Corn, Field [2]; 0.016 kg/ha): 8.0
- Postemergence herbicidal rating ZEAMX (ZEAMX Corn, Field [2]; 0.032 kg/ha): 8.0
- Postemergence herbicidal rating ZEAMX (ZEAMX Corn, Field [2]; 0.062 kg/ha): 8.0
- CASOB herbicidal rating (CASOB Sicklepod [3]; rate 0.016 kg/ha): 0.0
- CASOB herbicidal rating (CASOB Sicklepod [3]; rate 0.032 kg/ha): 0.0
- CASOB herbicidal rating (CASOB Sicklepod [3]; rate 0.062 kg/ha): 0.0
- CASOB herbicidal rating (CASOB Sicklepod [3]; rate 0.125 kg/ha): 2.0
- Postemergence herbicidal rating CHEAL ([4]; 0.008 kg/ha): 0.0
- Postemergence herbicidal rating CHEAL ([4]; 0.016 kg/ha): 0.0
- Postemergence herbicidal rating CHEAL ([4]; 0.032 kg/ha): 2.0
- Postemergence herbicidal rating CHEAL ([4]; 0.062 kg/ha): 3.0
- ECHCG herbicidal rating (ECHOG Barnyardgrass [5]; rate 0.016 kg/ha): 0.0
- ECHCG herbicidal rating (ECHOG Barnyardgrass [5]; rate 0.032 kg/ha): 0.0
- ECHCG herbicidal rating (ECHOG Barnyardgrass [5]; rate 0.062 kg/ha): 0.0
- ECHCG herbicidal rating (ECHOG Barnyardgrass [5]; rate 0.125 kg/ha): 0.0
- Postemergence herbicidal rating AMBEL (AMBEL Ragweed, Common [6]; 0.008 kg/ha): 2.0
- Postemergence herbicidal rating AMBEL (AMBEL Ragweed, Common [6]; 0.016 kg/ha): 7.0
- Postemergence herbicidal rating AMBEL (AMBEL Ragweed, Common [6]; 0.032 kg/ha): 7.0
- Postemergence herbicidal rating AMBEL (AMBEL Ragweed, Common [6]; 0.062 kg/ha): 9.0
- SETVI herbicidal rating (SETVI Foxtail, Green [7]; rate 0.016 kg/ha): 0.0
- SETVI herbicidal rating (SETVI Foxtail, Green [7]; rate 0.032 kg/ha): 0.0
- SETVI herbicidal rating (SETVI Foxtail, Green [7]; rate 0.062 kg/ha): 0.0
- SETVI herbicidal rating (SETVI Foxtail, Green [7]; rate 0.125 kg/ha): 9.0
- GALAP herbicidal rating (GALAP Galium [8]; rate 0.016 kg/ha): 0.0
- GALAP herbicidal rating (GALAP Galium [8]; rate 0.032 kg/ha): 0.0
- GALAP herbicidal rating (GALAP Galium [8]; rate 0.062 kg/ha): 0.0
- GALAP herbicidal rating (GALAP Galium [8]; rate 0.125 kg/ha): 0.0
- Postemergence herbicidal rating GALAP (GALAP Galium [9]; 0.008 kg/ha): 0.0
- Postemergence herbicidal rating GALAP (GALAP Galium [9]; 0.016 kg/ha): 0.0
- Postemergence herbicidal rating GALAP (GALAP Galium [9]; 0.032 kg/ha): 3.0
- Postemergence herbicidal rating GALAP (GALAP Galium [9]; 0.062 kg/ha): 4.0
- ABUTH herbicidal rating (ABUTH Velvetleaf [10]; rate 0.016 kg/ha): 0.0
- ABUTH herbicidal rating (ABUTH Velvetleaf [10]; rate 0.032 kg/ha): 0.0
- ABUTH herbicidal rating (ABUTH Velvetleaf [10]; rate 0.062 kg/ha): 2.0
- ABUTH herbicidal rating (ABUTH Velvetleaf [10]; rate 0.125 kg/ha): 9.0
- ORYSAT herbicidal rating (ORYSAT Rice, Tebonnet [11]; rate 0.016 kg/ha): 0.0
- ORYSAT herbicidal rating (ORYSAT Rice, Tebonnet [11]; rate 0.032 kg/ha): 0.0
- ORYSAT herbicidal rating (ORYSAT Rice, Tebonnet [11]; rate 0.062 kg/ha): 0.0
- ORYSAT herbicidal rating (ORYSAT Rice, Tebonnet [11]; rate 0.125 kg/ha): 0.0
- Postemergence herbicidal rating ORYSAT (ORYSAT Rice, Tebonnet [12]; 0.008 kg/ha): 1.0
- Postemergence herbicidal rating ORYSAT (ORYSAT Rice, Tebonnet [12]; 0.016 kg/ha): 2.0
- Postemergence herbicidal rating ORYSAT (ORYSAT Rice, Tebonnet [12]; 0.032 kg/ha): 3.5
- Postemergence herbicidal rating ORYSAT (ORYSAT Rice, Tebonnet [12]; 0.062 kg/ha): 6.0
- ZEAMX herbicidal rating (ZEAMX Corn, Field [13]; rate 0.016 kg/ha): 0.0
- ZEAMX herbicidal rating (ZEAMX Corn, Field [13]; rate 0.032 kg/ha): 0.0
- ZEAMX herbicidal rating (ZEAMX Corn, Field [13]; rate 0.062 kg/ha): 0.0
- ZEAMX herbicidal rating (ZEAMX Corn, Field [13]; rate 0.125 kg/ha): 0.0
- GLXMAW herbicidal rating (GLXMAW Soybean, Williams [14]; rate 0.016 kg/ha): 0.0
- GLXMAW herbicidal rating (GLXMAW Soybean, Williams [14]; rate 0.032 kg/ha): 0.0
- GLXMAW herbicidal rating (GLXMAW Soybean, Williams [14]; rate 0.062 kg/ha): 0.0
- GLXMAW herbicidal rating (GLXMAW Soybean, Williams [14]; rate 0.125 kg/ha): 0.0
- Postemergence herbicidal rating ECHCG (ECHOG Barnyardgrass [15]; 0.008 kg/ha): 0.0
- Postemergence herbicidal rating ECHCG (ECHOG Barnyardgrass [15]; 0.016 kg/ha): 0.0
- Postemergence herbicidal rating ECHCG (ECHOG Barnyardgrass [15]; 0.032 kg/ha): 3.0
- Postemergence herbicidal rating ECHCG (ECHOG Barnyardgrass [15]; 0.062 kg/ha): 3.0
- Postemergence herbicidal rating CASOB (CASOB Sicklepod [16]; 0.008 kg/ha): 0.0
- Postemergence herbicidal rating CASOB (CASOB Sicklepod [16]; 0.016 kg/ha): 0.0
- Postemergence herbicidal rating CASOB (CASOB Sicklepod [16]; 0.032 kg/ha): 0.0
- Postemergence herbicidal rating CASOB (CASOB Sicklepod [16]; 0.062 kg/ha): 1.0
- AMBEL herbicidal rating (AMBEL Ragweed, Common [17]; rate 0.016 kg/ha): 0.0
- AMBEL herbicidal rating (AMBEL Ragweed, Common [17]; rate 0.032 kg/ha): 0.0
- AMBEL herbicidal rating (AMBEL Ragweed, Common [17]; rate 0.062 kg/ha): 0.0
- AMBEL herbicidal rating (AMBEL Ragweed, Common [17]; rate 0.125 kg/ha): 9.0
- Postemergence herbicidal rating ABUTH (ABUTH Velvetleaf [18]; 0.008 kg/ha): 3.0
- Postemergence herbicidal rating ABUTH (ABUTH Velvetleaf [18]; 0.016 kg/ha): 8.0
- Postemergence herbicidal rating ABUTH (ABUTH Velvetleaf [18]; 0.032 kg/ha): 9.0
- Postemergence herbicidal rating ABUTH (ABUTH Velvetleaf [18]; 0.062 kg/ha): 9.0
- Postemergence herbicidal rating SETVI (SETVI Foxtail, Green [19]; 0.008 kg/ha): 0.0
- Postemergence herbicidal rating SETVI (SETVI Foxtail, Green [19]; 0.016 kg/ha): 0.0
- Postemergence herbicidal rating SETVI (SETVI Foxtail, Green [19]; 0.032 kg/ha): 7.0
- Postemergence herbicidal rating SETVI (SETVI Foxtail, Green [19]; 0.062 kg/ha): 9.0
- Postemergence herbicidal rating TRZAWR ([20]; 0.008 kg/ha): 3.5
- Postemergence herbicidal rating TRZAWR ([20]; 0.016 kg/ha): 4.5
- Postemergence herbicidal rating TRZAWR ([20]; 0.032 kg/ha): 6.0
- Postemergence herbicidal rating TRZAWR ([20]; 0.062 kg/ha): 8.0
- TRZAWR herbicidal rating ([21]; rate 0.016 kg/ha): 0.0
- TRZAWR herbicidal rating ([21]; rate 0.032 kg/ha): 0.0
- TRZAWR herbicidal rating ([21]; rate 0.062 kg/ha): 0.0
- TRZAWR herbicidal rating ([21]; rate 0.125 kg/ha): 0.0
- Postemergence herbicidal rating GLXMAW (GLXMAW Soybean, Williams [22]; 0.008 kg/ha): 5.5
- Postemergence herbicidal rating GLXMAW (GLXMAW Soybean, Williams [22]; 0.016 kg/ha): 5.5
- Postemergence herbicidal rating GLXMAW (GLXMAW Soybean, Williams [22]; 0.032 kg/ha): 6.0
- Postemergence herbicidal rating GLXMAW (GLXMAW Soybean, Williams [22]; 0.062 kg/ha): 7.5
- Postemergence herbicidal rating IPOHE ([23]; 0.008 kg/ha): 5.0
- Postemergence herbicidal rating IPOHE ([23]; 0.016 kg/ha): 5.0
- Postemergence herbicidal rating IPOHE ([23]; 0.032 kg/ha): 9.0
- Postemergence herbicidal rating IPOHE ([23]; 0.062 kg/ha): 9.0
- IPOHE herbicidal rating ([24]; rate 0.016 kg/ha): 0.0
- IPOHE herbicidal rating ([24]; rate 0.032 kg/ha): 0.0
- IPOHE herbicidal rating ([24]; rate 0.062 kg/ha): 0.0
